According to patent US11919902B2, “Aryl-bipyridine amine derivatives as phosphatidylinositol phosphate kinase inhibitors” (HiberCell, Inc., priority 2017, dated 2024):
Values joined by “and” are separate entries in the source; they are usually repeats but may differ in a detail not shown here. Identical values can stand only once.

Columns and labels:
GST tagged PIP4KtypeIIA = target: T1, GST tagged PIP4KtypeIIA (Homo sapiens, UniProt P48426); assay: ADP-glo kinase assay PIP4K 2A (PIP4KtypeIIA inhibition assay); assay type: biochemical; settings: Table 3; compounds listed under IC50 range headings; 10 uM ATP, 0.5 nM PIP4KIIA
T1 construct: made in house; host or cells: E. coli
T1 sequence (P48426 1-406): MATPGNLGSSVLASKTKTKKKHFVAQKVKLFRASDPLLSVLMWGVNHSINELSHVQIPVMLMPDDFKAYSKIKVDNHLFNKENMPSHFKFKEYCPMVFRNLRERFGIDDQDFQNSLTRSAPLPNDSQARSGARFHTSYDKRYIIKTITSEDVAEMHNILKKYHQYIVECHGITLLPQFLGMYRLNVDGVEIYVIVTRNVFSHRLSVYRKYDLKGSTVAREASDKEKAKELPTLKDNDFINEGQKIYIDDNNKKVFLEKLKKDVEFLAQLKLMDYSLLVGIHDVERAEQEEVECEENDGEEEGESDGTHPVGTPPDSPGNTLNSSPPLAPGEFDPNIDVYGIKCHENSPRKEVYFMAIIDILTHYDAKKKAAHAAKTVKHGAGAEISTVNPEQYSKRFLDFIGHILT
Description: GST tagged PIP4KtypeIIA and B enzymes were overexpressed in E. Coli and purified to >80% homogeneity. Phosphatidyl inositol-5-phosphate (PI5P, Cat. #850152, Avanti Polar Lipids Inc.) was used as the lipid substrate and phosphatidyl ethanolamine (DOPE 18:1, Cat. #850725, Avanti Polar Lipids Inc.) was used as the carrier lipid for assays. Ultrapure ATP and GTP was purchased from Bellbrooke Labs. ADP Glo reagents were obtained from Promega. Transcreener FI reagent was obtained from Bellbrooke labs.
1. HEPES buffer mix: 200 mM HEPES pH 7.4, 50 mM MgCl2, 0.05% v/v triton×100
2. HNE buffer: 20 mM HEPES, pH 7.4, 100 mM NaCl, 0.5 mM EGTA
3. H:E buffer: 30 mM HEPES, pH 7.4, 1 mM EGTA
Enzyme preparation: GST-tagged PIP4KtypeIIA (5 uL, 1.43 mg/mL) was diluted (1:10) to 50 uL using HNE buffer. From the 1:10 diluted stock, a 6.4 uL aliquot was diluted further to 5 mL using HNE buffer to yield 5× enzyme stock (2.5 nM).
Lipid Preparation: In a 10 mL pyrex glass vial, lug of PI5P and lug of DOPE were suspended in 2.5 mL of HEPES buffer mix and 2.5 mL of H:E buffer. The contents were mixed and sonicated for 3 min to yield a translucent lipid stock.
Compound Preparation: Compounds were stored as 5 mM stocks in neat DMSO as room temperature in glass vials. 5 mM stocks were diluted to 2 mM and then serially diluted (3×) in neat DMSO in 96 well polypropylene plates. From the serially diluted stocks, 3 uL was delivered into 250 uL of 25% DMSO (in water) to generate 5× compound stocks. Typically, the highest compound conc. was 24 uM.
The assay volume was kept at 25 uL. To each well of the reaction plate, 10 uL of lipid stock (1:1 ratio PI5P:DOPE) was delivered. This was followed by the addition of 5 uL of compound in 25% DMSO. Then, to each well, 5 uL of 2.5 nM (5×) typeIIA enzyme was delivered. The contents were mixed well and incubated for 1 h at 27 C. After 1 h, reaction was initiated by adding 5 uL of 50 uM ATP and the contents were mixed well with a multi-channel pipetteman. The final concentration of the reagents are as follows: 50 mM HEPES, pH 7.3, 10 mM MgCl2, 20 mM NaCl, 0.01% v/v triton-X100, 5% DMSO, 10 uM ATP, 80 uM (2 ug) PI5P, 2 ug DOPE, and 0.5 nM PIP4KIIA. Typically, the highest conc. of compounds was 4.8 uM and the lowest conc. was 0.
After 1 hr, the reaction was quenched by adding 25 uL of ADP Glo reagent. The contents were incubated for 1 hr. Afterwards, 50 uL of kinase detection reagent was delivered. The contents were incubated for another hour. The luminescence was read using Molecular Devices Paradigm plate reader. […] The blanks were averaged and subtracted from all other wells. Using a calibration curve, RLU was converted to uM ADP (product). IC50 was calculated by plotting the residual activity (expressed as % No inhibitor control) vs. log [Inh. conc.]

GST tagged PIP4KtypeIIB = target: T2, GST tagged PIP4KtypeIIB (Homo sapiens, UniProt P78356); assay: Trans-FI P kinase assay PIP4K2B (PIP4KtypeIIB inhibition assay); assay type: biochemical; settings: Table 4; compounds listed under IC50 range headings; 100 uM GTP, 5 nM PIP4KIIB; read-out: Trans-FI P kinase assays: PIP4K2B IC50
T2 construct: made in house; host or cells: E. coli
T2 sequence (P78356 1-416): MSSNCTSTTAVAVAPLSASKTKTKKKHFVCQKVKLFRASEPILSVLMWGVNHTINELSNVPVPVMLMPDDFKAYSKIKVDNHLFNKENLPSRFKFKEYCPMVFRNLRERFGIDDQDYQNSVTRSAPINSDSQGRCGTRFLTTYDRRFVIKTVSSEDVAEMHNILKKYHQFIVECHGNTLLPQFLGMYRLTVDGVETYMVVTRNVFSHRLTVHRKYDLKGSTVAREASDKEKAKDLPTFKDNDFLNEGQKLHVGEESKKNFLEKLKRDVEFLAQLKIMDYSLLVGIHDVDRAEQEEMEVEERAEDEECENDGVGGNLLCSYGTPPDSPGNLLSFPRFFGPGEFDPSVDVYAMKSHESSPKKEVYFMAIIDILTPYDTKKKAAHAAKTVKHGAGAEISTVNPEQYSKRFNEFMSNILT
Procedure, shortened: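 Purified GST-PIP4KIIB (5 nM final), 1 h preincubation with compound at 27 C, then 2 h reaction with 100 uM GTP and 80 uM PI5P plus DOPE carrier lipid in pH 7.3 HEPES/MgCl2/Triton buffer with 5% DMSO. GDP read by Transcreener FI fluorescence against a calibration curve; IC50 from % no-inhibitor activity vs log concentration.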

Row | IC50 (GST tagged PIP4KtypeIIA) [nM] | IC50 (GST tagged PIP4KtypeIIB) | Compound
1 | > 5000 | > 5000 nM | CCc1ccc2c(c1)N(c1ccc(-c3cncc(-c4ccnc5c4cc4n5CCN(C)C4=O)c3)cc1)C(=O)C2 [Example 151, 4-(5-(4-(6-ethyl-2-oxoindolin-1-yl)phenyl)pyridin-3-yl)-7-methyl-8,9-dihydropyrido[3′,2′:4,5]pyrrolo[1,2-a]pyrazin-6 (7H)-one]
2 | 100 to 1000 | 100 to 1000 nM | Cc1cc(N2CCCC2=O)ccc1-c1cncc(-c2cn(C)c3ncc(C(C)O)cc23)c1 (stereo not drawn) [Example 197, 1-(4-(5-(5-(1-hydroxyethyl)-1-methyl-1H-pyrrolo[2,3-b]pyridin-3-yl)pyridin-3-yl)-3-methylphenyl)pyrrolidin-2-one]
3 | 100 to 1000 | 10 to 100 nM | C[C@@H]1CC(=O)N(c2ccc(-c3cncc(-c4ccnc5c4cc4n5CCN(C)C4=O)c3)cc2)C1 [Example 198, (R)-7-methyl-4-(5-(4-(4-methyl-2-oxopyrrolidin-1-yl)phenyl)pyridin-3-yl)-8,9-dihydropyrido[3′,2′:4,5]pyrrolo[1,2-a]pyrazin-6(7H)-one]
4 | 100 to 1000 | 10 to 100 nM | C[C@H]1CC(=O)N(c2ccc(-c3cncc(-c4ccnc5c4cc4n5CCN(C)C4=O)c3)cc2)C1 [Example 199, (S)-7-methyl-4-(5-(4-(4-methyl-2-oxopyrrolidin-1-yl)phenyl)pyridin-3-yl)-8,9-dihydropyrido[3′,2′:4,5]pyrrolo[1,2-a]pyrazin-6(7H)-one]
5 | 100 to 1000 | 10 to 100 nM | CN1CCn2c(cc3c(-c4cncc(-c5ccc(N6CC(C)(C)CC6=O)cc5)c4)ccnc32)C1=O [Example 200, 4-(5-(4-(4,4-dimethyl-2-oxopyrrolidin-1-yl)phenyl)pyridin-3-yl)-7-methyl-8,9-dihydropyrido[3′,2′:4,5]pyrrolo[1,2-a]pyrazin-6(7H)-one]
6 | 100 to 1000 | 10 to 100 nM | CN1CCn2c(cc3c(-c4cncc(-c5ccc(N6CC7(CC7)CC6=O)cc5)c4)ccnc32)C1=O [Example 201, 7-methyl-4-(5-(4-(6-oxo-5-azaspiro[2.4]heptan-5-yl)phenyl)pyridin-3-yl)-8,9-dihydropyrido[3′,2′:4,5]pyrrolo[1,2-a]pyrazin-6(7H)-one]
7 | > 5000 | > 5000 nM | CN1CCn2c(cc3c(-c4cncc(-c5ccc(N6C(=O)Cc7ccccc76)cc5)c4)ccnc32)C1=O [Example 202, 7-methyl-4-(5-(4-(2-oxoindolin-1-yl)phenyl)pyridin-3-yl)-8,9-dihydropyrido[3′,2′:4,5]pyrrolo[1,2-a]pyrazin-6(7H)-one]
8 | 100 to 1000 | 2500 to 5000 nM | O=C(Nc1ccc(-c2cncc(-c3ccnc4[nH]ncc34)c2)cc1)C(=O)N1CC2CCC1C2 (stereo not drawn) [Example 203, N-(4-(5-(1H-pyrazolo[3,4-b]pyridin-4-yl)pyridin-3-yl)phenyl)-2-(2-azabicyclo[2.2.1]heptan-2-yl)-2-oxoacetamide]
9 | 100 to 1000 | > 5000 nM | O=C(Nc1ccc(-c2cncc(-c3ccnc4[nH]ncc34)c2)cc1)C(=O)N1C2CCC1CC2 [Example 204, N-(4-(5-(1H-pyrazolo[3,4-b]pyridin-4-yl)pyridin-3-yl)phenyl)-2-(7-azabicyclo[2.2.1]heptan-7-yl)-2-oxoacetamide]
10 | > 5000 | 100 to 1000 nM and > 5000 nM | O=C(Nc1ccc(-c2cncc(-c3ccnc4[nH]ncc34)c2)cc1)c1cc(C2CCC2)on1 [Example 205, N-(4-(5-(1H-pyrazolo[3,4-b]pyridin-4-yl)pyridin-3-yl)phenyl)-5-cyclobutylisoxazole-3-carboxamide]
11 | > 5000 | > 5000 nM | CN(C(=O)c1ccc(-c2cncc(-c3ccnc4[nH]ncc34)c2)cc1)c1cccc(-n2ccnn2)c1 [Example 206, N-(3-(1H-1,2,3-triazol-1-yl)phenyl)-4-(5-(1H-pyrazolo[3,4-b]pyridin-4-yl)pyridin-3-yl)-N-methylbenzamide]
12 | 10 to 100 | 10 to 100 nM | O=C1CCCN1c1ccc(-c2cncc(-c3ccnc4c3cc3n4CCN(c4ccccn4)C3=O)c2)cc1 [Example 207, 4-(5-(4-(2-oxopyrrolidin-1-yl)phenyl)pyridin-3-yl)-7-(pyridin-2-yl)-8,9-dihydropyrido[3′,2′:4,5]pyrrolo[1,2-a]pyrazin-6(7H)-one]
13 | > 5000 | > 5000 nM | Cc1cccc2c1CC(=O)N2c1ccc(-c2cncc(-c3ccnc4c3cc3n4CCN(C)C3=O)c2)cc1 [Example 208, 7-methyl-4-(5-(4-(4-methyl-2-oxoindolin-1-yl)phenyl)pyridin-3-yl)-8,9-dihydropyrido[3′,2′:4,5]pyrrolo[1,2-a]pyrazin-6(7H)-one]
14 | > 5000 | 1000 to 2500 nM | CCc1cccc2c1CC(=O)N2c1ccc(-c2cncc(-c3ccnc4c3cc3n4CCN(C)C3=O)c2)cc1 [Example 209, 4-(5-(4-(4-ethyl-2-oxoindolin-1-yl)phenyl)pyridin-3-yl)-7-methyl-8,9-dihydropyrido[3′,2′:4,5]pyrrolo[1,2-a]pyrazin-6(7H)-one]
15 | > 5000 | 2500 to 5000 nM | CN(C)C(=O)c1ccc(-c2cc(-c3cc(Nc4cc(N)ccn4)ncn3)cnc2N)nc1 [Example 222, 2′-amino-5′-(6-((4-aminopyridin-2-yl)amino)pyrimidin-4-yl)-N,N-dimethyl-[2,3′-bipyridine]-5-carboxamide]
16 | 1000 to 2500 | 10 to 100 nM | CN(C)C(=O)c1ccc(-c2cc(-c3ccnc4[nH]c(C(=O)N[C@H]5COC[C@H]5N)cc34)cnc2N)nc1 [Example 226, 4-(2′-amino-5-(dimethylcarbamoyl)-[2,3′-bipyridin]-5′-yl)-N-((3R,4S)-4-aminotetrahydrofuran-3-yl)-1H-pyrrolo[2,3-b]pyridine-2-carboxamide]
17 | 100 to 1000 | 10 to 100 nM | COCCNC(=O)c1cc2c(-c3cncc(-c4ccc(N5CCCC5=O)cc4)c3)ccnc2[nH]1 [Example 228, N-(2-methoxyethyl)-4-(5-(4-(2-oxopyrrolidin-1-yl)phenyl)pyridin-3-yl)-1H-pyrrolo[2,3-b]pyridine-2-carboxamide]
18 | 100 to 1000 | 100 to 1000 nM | O=C(c1cc2c(-c3cncc(-c4ccc(N5CCCC5=O)cc4)c3)ccnc2[nH]1)N1CCOCC1 [Example 229, 1-(4-(5-(2-(morpholine-4-carbonyl)-1H-pyrrolo[2,3-b]pyridin-4-yl)pyridin-3-yl)phenyl)pyrrolidin-2-one]
